Values quoted from earlier work as cited in patent US20250381239A1, “METHOD FOR IMPROVING SLEEP QUALITY OR INCREASING SLEEP DURATION AND METHOD FOR RELIEVING PSYCHOLOGICAL STRESS” (TOYO SHINYAKU CO., LTD., priority 2024, published 2025).

What was measured:
[1] = system: mice; settings: mice subjected only to psychological stress
[2] = system: mice; settings: water immersion restraint test

Structure (SMILES)	Effect on psychological stress ulcers [1]	Effect on physical stress ulcers [2]
NC(N)=Nc1nc(CSCCC(N)=NS(N)(=O)=O)cs1 [famotidine]	no effect	effective
CCN1CCCC1CNC(=O)c1cc(S(N)(=O)=O)ccc1OC (stereo not shown) [sulpiride]	effective	no effect
